The term IC50 denotes the concentration at which inhibition is half-maximal. Lower therefore signals greater potency.

This experiment deals with T1, human PKCθ full length enzyme (Homo sapiens, UniProt Q04759).
T1 construct: human PKCθ full length enzyme (Panvera Catalog No. P2996); purchased Panvera P2996
T1 sequence (Q04759 whole entry): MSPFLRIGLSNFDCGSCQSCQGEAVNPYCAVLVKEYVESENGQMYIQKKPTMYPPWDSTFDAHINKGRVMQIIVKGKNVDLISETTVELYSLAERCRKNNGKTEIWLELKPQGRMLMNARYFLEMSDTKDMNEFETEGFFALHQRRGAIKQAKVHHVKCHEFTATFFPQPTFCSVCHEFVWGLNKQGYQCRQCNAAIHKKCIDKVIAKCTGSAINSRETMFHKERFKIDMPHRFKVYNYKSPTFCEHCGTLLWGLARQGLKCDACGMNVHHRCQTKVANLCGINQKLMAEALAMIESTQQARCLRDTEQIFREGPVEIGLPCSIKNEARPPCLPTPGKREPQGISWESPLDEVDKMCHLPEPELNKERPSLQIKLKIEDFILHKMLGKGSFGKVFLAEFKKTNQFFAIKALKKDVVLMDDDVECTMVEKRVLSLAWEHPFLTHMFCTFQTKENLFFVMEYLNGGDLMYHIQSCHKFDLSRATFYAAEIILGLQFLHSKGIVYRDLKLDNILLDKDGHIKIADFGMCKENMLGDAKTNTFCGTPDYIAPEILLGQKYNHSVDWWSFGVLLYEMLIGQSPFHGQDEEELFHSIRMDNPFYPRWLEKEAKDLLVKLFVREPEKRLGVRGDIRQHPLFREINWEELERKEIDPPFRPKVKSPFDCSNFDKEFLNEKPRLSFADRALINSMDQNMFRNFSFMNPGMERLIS
Put plainly: PKCθ IMAP Assay. The note with it: average value when one or more samples were tested; ATP 6 uM, PKCθ 1 nM. The format is biochemical. The method in brief: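 Full-length human PKCθ (1 nM final) with 6 uM ATP and 100 nM 5FAM-labelled peptide, 5% DMSO, 3.0 mM DTT in reaction buffer. 25 min at room temperature; IMAP bead binding 20 min, fluorescence polarization read. Compounds 2:1 serially diluted; no-ATP and no-enzyme wells as controls.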
`Cc1c(Nc2c(C#N)cnc3sc(/C=C/C(=O)N4CCN(C)CC4)cc23)ccc2[nH]ccc12` [Compound 295, 4-[(4-methyl-1H-indol-5-yl)amino]-2-[(1E)-3-(4-methylpiperazin-1-yl)-3-oxoprop-1-en-1-yl]thieno[2,3-b]pyridine-5-carbonitrile] registered an IC50 of 43 nM.
In the case of `Cc1c(Nc2c(C#N)cnc3sc(/C=C/C(=O)Nc4cccnc4)cc23)ccc2[nH]ccc12` [Compound 296, (2E)-3-{5-cyano-4-[(4-methyl-1H-indol-5-yl)amino]thieno[2,3-b]pyridin-2-yl}-N-pyridin-3-ylacrylamide] it was 17 nM.
`Cc1c(Nc2c(C#N)cnc3sc(/C=C/C(N)=O)cc23)ccc2[nH]ccc12` [Compound 297, (2E)-3-{5-cyano-4-[(4-methyl-1H-indol-5-yl)amino]thieno[2,3-b]pyridin-2-yl}acrylamide] yielded a 50% inhibitory concentration (IC50) of 12 nM.
The compound `Cc1c(Nc2c(C#N)cnc3sc(/C=C/C(=O)N4CCCCC4)cc23)ccc2[nH]ccc12` [Compound 298, 4-[(4-methyl-1H-indol-5-yl)amino]-2-[(1E)-3-oxo-3-piperidin-1-ylprop-1-en-1-yl]thieno[2,3-b]pyridine-5-carbonitrile] returned a half-maximal inhibitory concentration (IC50) of 48 nM. This IC50 is about 4-fold higher than that of the compound before.
Consider `Cc1c(Nc2c(C#N)cnc3sc(/C=C/C(=O)N4CCC[C@H]4CN4CCCC4)cc23)ccc2[nH]ccc12` [Compound 299, 4-[(4-methyl-1H-indol-5-yl)amino]-2-{(1E)-3-oxo-3-[(2S)-2-(pyrrolidin-1-ylmethyl)pyrrolidin-1-yl]prop-1-en-1-yl}thieno[2,3-b]pyridine-5-carbonitrile], for which 32 nM corresponded to half-maximal inhibition (IC50).
In the case of `Cc1c(Nc2c(C#N)cnc3sc(/C=C/C(=O)N4CC[C@@H](N(C)C)C4)cc23)ccc2[nH]ccc12` [Compound 300, 2-{(1E)-3-[(3R)-3-(dimethylamino)pyrrolidin-1-yl]-3-oxoprop-1-en-1-yl}-4-[(4-methyl-1H-indol-5-yl)amino]thieno[2,3-b]pyridine-5-carbonitrile] it was 175 nM.
Then `Cc1c(Nc2c(C#N)cnc3sc(/C=C/C(=O)N4CC[C@H](N(C)C)C4)cc23)ccc2[nH]ccc12` [Compound 301, 2-{(1E)-3-[(3S)-3-(dimethylamino)pyrrolidin-1-yl]-3-oxoprop-1-en-1-yl}-4-[(4-methyl-1H-indol-5-yl)amino]thieno[2,3-b]pyridine-5-carbonitrile], with 171 nM; and `Cc1c(Nc2c(C#N)cnc3sc(/C=C/C(=O)N4CCCC4)c(C)c23)ccc2[nH]ccc12` [Compound 302, 3-methyl-4-[(4-methyl-1H-indol-5-yl)amino]-2-[(1E)-3-oxo-3-pyrrolidin-1-ylprop-1-en-1-yl]thieno[2,3-b]pyridine-5-carbonitrile], with 4 nM; and `Cc1c(Nc2c(C#N)cnc3sc(/C=C/C(=O)Nc4ccccc4)cc23)ccc2[nH]ccc12` [Compound 303, (2E)-3-{5-cyano-4-[(4-methyl-1H-indol-5-yl)amino]thieno[2,3-b]pyridin-2-yl}-N-phenylacrylamide], with 111 nM.
On to `Cc1c(Nc2c(C#N)cnc3sc(/C=C/C(=O)Nc4ccncc4)cc23)ccc2[nH]ccc12` [Compound 304, (2E)-3-{5-cyano-4-[(4-methyl-1H-indol-5-yl)amino]thieno[2,3-b]pyridin-2-yl}-N-pyridin-4-ylacrylamide], for which the half-inhibitory concentration (IC50) worked out at 43 nM.
Then `Cc1c(Nc2c(C#N)cnc3sc(/C=C/C(=O)N(C)C)cc23)ccc2[nH]ccc12` [Compound 305, (2E)-3-{5-cyano-4-[(4-methyl-1H-indol-5-yl)amino]thieno[2,3-b]pyridin-2-yl}-N,N-dimethylacrylamide], with 2 nM.
Then `CCN(CC)C(=O)/C=C/c1cc2c(Nc3ccc4[nH]ccc4c3C)c(C#N)cnc2s1` [Compound 306, (2E)-3-{5-cyano-4-[(4-methyl-1H-indol-5-yl)amino]thieno[2,3-b]pyridin-2-yl}-N,N-diethylacrylamide], with 2 nM.
Then `CCNC(=O)/C=C/c1cc2c(Nc3ccc4[nH]ccc4c3C)c(C#N)cnc2s1` [Compound 307, (2E)-3-{5-cyano-4-[(4-methyl-1H-indol-5-yl)amino]thieno[2,3-b]pyridin-2-yl}-N-ethylacrylamide], with 15 nM.
In the case of `COCCNC(=O)/C=C/c1cc2c(Nc3ccc4[nH]ccc4c3C)c(C#N)cnc2s1` [Compound 308, (2E)-3-{5-cyano-4-[(4-methyl-1H-indol-5-yl)amino]thieno[2,3-b]pyridin-2-yl}-N-(2-methoxyethyl)acrylamide], the half-inhibitory concentration (IC50) worked out at 48 nM.
`Cc1c(Nc2c(C#N)cnc3sc(/C=C/C(=O)N4CCOCC4)cc23)ccc2[nH]ccc12` [Compound 309, 4-[(4-methyl-1H-indol-5-yl)amino]-2-[(1E)-3-morpholin-4-yl-3-oxoprop-1-en-1-yl]thieno[2,3-b]pyridine-5-carbonitrile]: the half-maximal inhibitory concentration (IC50) was found to be 53 nM.
On to `Cc1c(Nc2c(C#N)cnc3sc(/C=C/C(=O)N4CCC(O)C4)cc23)ccc2[nH]ccc12` (stereo not drawn) [Compound 310, 2-[(1E)-3-(3-hydroxypyrrolidin-1-yl)-3-oxoprop-1-en-1-yl]-4-[(4-methyl-1H-indol-5-yl)amino]thieno[2,3-b]pyridine-5-carbonitrile], for which the 50% inhibitory concentration (IC50) was determined as 41 nM. This IC50 and that of the compound before are within 1.5-fold of each other.
The compound `Cc1c(Nc2c(C#N)cnc3sc(/C=C/C(=O)N4CCNCC4)cc23)ccc2[nH]ccc12` [Compound 311, 4-[(4-methyl-1H-indol-5-yl)amino]-2-[(1E)-3-oxo-3-piperazin-1-ylprop-1-en-1-yl]thieno[2,3-b]pyridine-5-carbonitrile] registered a half-inhibitory concentration (IC50) of 88 nM.
The compound `Cc1c(Nc2c(C#N)cnc3sc(/C=C/C(=O)N(C)CCN(C)C)cc23)ccc2[nH]ccc12` [Compound 312, (2E)-3-{5-cyano-4-[(4-methyl-1H-indol-5-yl)amino]thieno[2,3-b]pyridin-2-yl}-N-[2-(dimethylamino)ethyl]-N-methylacrylamide] registered an IC50 of 151 nM.
`Cc1c(Nc2c(C#N)cnc3sc(/C=C/C(=O)NN(C)C)cc23)ccc2[nH]ccc12` [Compound 313, (2E)-3-{5-cyano-4-[(4-methyl-1H-indol-5-yl)amino]thieno[2,3-b]pyridin-2-yl}-N′,N′-dimethylacrylohydrazide] gave a half-maximal inhibitory concentration (IC50) of 104 nM.
In turn, `Cc1c(Nc2c(C#N)cnc3sc(/C=C/C(=O)NN4CCCC4)cc23)ccc2[nH]ccc12` [Compound 314, (2E)-3-{5-cyano-4-[(4-methyl-1H-indol-5-yl)amino]thieno[2,3-b]pyridin-2-yl}-N-pyrrolidin-1-ylacrylamide] showed an IC50 of 375 nM.
`Cc1c(I)sc2ncc(C#N)c(Nc3ccc4[nH]ccc4c3)c12` [Compound 317, 4-(1H-Indol-5-ylamino)-2-iodo-3-methylthieno[2,3-b]pyridine-5-carbonitrile] returned an IC50 of 718 nM.
Take `Cc1c(Nc2c(C#N)cnc3sc(I)c(C)c23)ccc2[nH]ccc12` [Compound 318, 2-Iodo-3-methyl-4-[(4-methyl-1H-indol-5-yl)amino]thieno[2,3-b]pyridine-5-carbonitrile]: the midpoint of inhibition, the IC50, lay at 80 nM.
Take `Cc1ccc2[nH]ccc2c1Nc1c(C#N)cnc2sc(-c3ccccc3)cc12` [Compound 319, 4-[(5-methyl-1H-indol-4-yl)amino]-2-phenylthieno[2,3-b]pyridine-5-carbonitrilee]: the IC50 stood at 1110 nM. Compared with the last compound, the IC50 is about 14-fold higher.
With `CN(C)Cc1cccc(-c2cc3c(Nc4cnc5[nH]ccc5c4)c(C#N)cnc3s2)c1` [Compound 320, 2-{3-[(dimethylamino)methyl]phenyl}-4-(1H-pyrrolo[2,3-b]pyridin-5-ylamino)thieno[2,3-b]pyridine-5-carbonitrile], the IC50 is 690 nM.
The compound `CC(C)c1c(I)sc2ncc(C#N)c(Nc3ccc4[nH]ccc4c3)c12` [Compound 321, 4-(1H-indol-5-ylamino)-2-iodo-3-isopropylthieno[2,3-b]pyridine-5-carbonitrile] had a half-maximal inhibitory concentration (IC50) of 345 nM.
Regarding `N#Cc1cnc2sc(-c3ccccc3)cc2c1Nc1cnc2[nH]ccc2c1` [Compound 322, 2-phenyl-4-(1H-pyrrolo[2,3-b]pyridin-5-ylamino)thieno[2,3-b]pyridine-5-carbonitrile], half-maximal inhibition (IC50) required 4670 nM.
In turn, `Cc1cc2[nH]ccc2cc1Nc1c(C#N)cnc2sc(-c3ccccc3)cc12` [Compound 323, 4-[(6-methyl-1H-indol-5-yl)amino]-2-phenylthieno[2,3-b]pyridine-5-carbonitrile] returned a half-inhibitory concentration (IC50) of 87 nM.
Regarding `Cc1c(Nc2c(C#N)cnc3sc(I)c(C(C)C)c23)ccc2[nH]ccc12` [Compound 324, 2-iodo-3-isopropyl-4-[(4-methyl-1H-indol-5-yl)amino]thieno[2,3-b]pyridine-5-carbonitrile], the IC50 is 65 nM.
In the case of `Cc1c(Nc2c(C#N)cnc3scc(Br)c23)ccc2[nH]ccc12` [Compound 325, 3-bromo-4-[(4-methyl-1H-indol-5-yl)amino]thieno[2,3-b]pyridine-5-carbonitrile] it was 15 nM; in that of `CN(C)Cc1cccc(-c2cc3c(Nc4cccnc4)c(C#N)cnc3s2)c1` [Compound 326, 2-{3-[(dimethylamino)methyl]phenyl}-4-(pyridin-3-ylamino)thieno[2,3-b]pyridine-5-carbonitrile], 31000 nM; in that of `CN(C)Cc1cccc(-c2cc3c(Nc4ccncc4)c(C#N)cnc3s2)c1` [Compound 327, 2-{3-[(dimethylamino)methyl]phenyl}-4-(pyridin-4-ylamino)thieno[2,3-b]pyridine-5-carbonitrile], 16400 nM.
Compound `N#Cc1cnc2sc(-c3ccc4ccccc4c3)cc2c1Nc1ccc2[nH]ccc2c1` [Compound 328, 4-(1H-indol-5-ylamino)-2-(2-naphthyl)thieno[2,3-b]pyridine-5-carbonitrile] had an IC50 of 1380 nM. Against the preceding compound, the IC50 is about 12-fold lower.
In the case of `Cc1c(Nc2c(C#N)cnc3sc(-c4ccc(N5CCOCC5)nc4)cc23)ccc2[nH]ccc12` [Compound 329, 4-[(4-methyl-1H-indol-5-yl)amino]-2-(6-morpholin-4-ylpyridin-3-yl)thieno[2,3-b]pyridine-5-carbonitrile] it was 160 nM.

The values are drawn from patent publication US20070082880A1 (priority 2005, published 2007).
